Data as given in the supplement of paper PMC10290057.

Columns and labels:
HCT116 [1] = assay: efficacy (fitted maximal change in viability relative to DMSO control); higher = less cytotoxic (negative = loss of viability); details: 48 h
HCT116 [2] = assay: AC50 cell viability (CellTiter-Glo); higher = less potent; details: 48 h
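For AC50 cell viability (CellTiter-Glo) in this document: HCT116 colorectal carcinoma cells screened at five concentrations per compound, luminescent viability scaled between DMSO wells and empty wells on each plate, curves fitted per compound.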
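For efficacy (fitted maximal change in viability relative to DMSO control) in this document: Luminescence-based viability readout, five doses per compound, normalized against on-plate DMSO and empty-well controls, followed by dose-response curve fitting for every drug.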

Compound `c1ccc(CNc2nc(N3CCOc4ccccc43)nc3c2CCCC3)cc1` has an efficacy (HCT116 [1]) of -42.4% and an AC50 cell viability (HCT116 [2]) of 20.9 µM.

Work on `c1cc(-c2cnn3cc(-c4ccc(N5CCNCC5)cc4)cnc23)c2cccnc2c1` yielded an efficacy (HCT116 [1]) of -81.9% and an AC50 cell viability (HCT116 [2]) of 6.61 µM.

Work on `CC(/C=C/[C@@H]1C[C@]1(C)c1ccc2c(c1)C(C)(C)CCC2(C)C)=C\C(=O)O` yielded an efficacy (HCT116 [1]) of -66.8% and an AC50 cell viability (HCT116 [2]) of 23.5 µM.

Compound `CC(C)(C)Cn1c(N)nc2ccc(-c3[nH]c(C(C)(C)C)nc3-c3ccc(F)cc3)nc21` has an efficacy (HCT116 [1]) of -83.7% and an AC50 cell viability (HCT116 [2]) of 23.5 µM.

With `Cc1[nH]c(/C=C2\C(=O)Nc3ccc(F)cc32)c(C)c1C(=O)NC[C@H](O)CN1CCOCC1` the efficacy (HCT116 [1]) was -73% and the AC50 cell viability (HCT116 [2]) was 2.63 µM.

With `Cc1cnc(Nc2ccc(OCCN3CCCC3)cc2)nc1Nc1cccc([S+](=O)([O-])NC(C)(C)C)c1` the efficacy (HCT116 [1]) was -109% and the AC50 cell viability (HCT116 [2]) was 2.63 µM.

With `Cc1cc(-c2cnn3c(NC[C@H]4C[C@@](C)(O)C4)cc(Oc4cccnc4)nc23)ccc1C(=O)NC1CC1` the efficacy (HCT116 [1]) was -56.6% and the AC50 cell viability (HCT116 [2]) was 0.934 µM.

`Cc1cc(N2CCOCC2)ccc1Nc1nc(NC2CCCCC2)c2nc[nH]c2n1` was tested, and the efficacy (HCT116 [1]) was -59.2% and the AC50 cell viability (HCT116 [2]) was 6.61 µM.

With `Cc1ccc(C(C)(O)c2nc3ccccc3s2)c(C)c1` (stereo unspecified) the efficacy (HCT116 [1]) was -43.4% and the AC50 cell viability (HCT116 [2]) was 16.6 µM.

`Cc1ccc([S+](=O)([O-])Cc2nc(-c3ccc(C(=O)NCc4cccnc4)cc3)oc2C)cc1` was tested, and the efficacy (HCT116 [1]) was -90.9% and the AC50 cell viability (HCT116 [2]) was 0.0372 µM.

With `Cc1c[nH]c(-c2cnc(NCCNc3ccc(C#N)cn3)nc2-c2ccc(Cl)cc2Cl)n1` the efficacy (HCT116 [1]) was -72.6% and the AC50 cell viability (HCT116 [2]) was 26.3 µM.

With `Cc1cccc(-c2[nH]c(C(C)(C)C)nc2-c2ccc3c(c2)OCO3)n1` the efficacy (HCT116 [1]) was -86.6% and the AC50 cell viability (HCT116 [2]) was 2.95 µM.

Compound `Cc1cccc(-c2[nH]c(C(C)(C)C)nc2-c2ccc3nccnc3c2)n1` has an efficacy (HCT116 [1]) of -85.8% and an AC50 cell viability (HCT116 [2]) of 20.9 µM.

For `Cc1nc2ccc(-n3ncc(C(=O)c4cc5ccccc5[nH]4)c3N)cc2[nH]1`, the efficacy (HCT116 [1]) was -71.3% and the AC50 cell viability (HCT116 [2]) was 8.33 µM.

`CC1CC2=CC=CC=C2N1C(=O)C\C3=N\C(=O)\C=C(/N3)N4CCOCC4` (stereo unspecified) showed an efficacy (HCT116 [1]) of -57.5% and an AC50 cell viability (HCT116 [2]) of 18.6 µM.

`CCc1cncnc1N1CCN(Cc2nc3cc(C(F)(F)F)ccc3[nH]2)CC1` gave an efficacy (HCT116 [1]) of -42.6% and an AC50 cell viability (HCT116 [2]) of 14.8 µM.

`CCc1cnn2c(NCc3ccc[n+]([O-])c3)cc(N3CCCC[C@H]3CCO)nc12` was tested, and the efficacy (HCT116 [1]) was -67.1% and the AC50 cell viability (HCT116 [2]) was 0.0148 µM.

In the case of `CCN(CC)CCCC(C)Nc1nc(C)cc(Nc2ccc3nc(C)cc(N)c3c2)n1` (stereo unspecified), the efficacy (HCT116 [1]) is reported as -54.4% and the AC50 cell viability (HCT116 [2]) is reported as 20.9 µM.

For `CCN(CC)CCCCNc1ncc2cc(-c3cc(OC)cc(OC)c3)c(NC(=O)NC(C)(C)C)nc2n1`, the efficacy (HCT116 [1]) was -117% and the AC50 cell viability (HCT116 [2]) was 18.6 µM.

Work on `CCN1CCN(CC1)CC(=O)NC2=CC=C(C3=C2C4=C(S3)C=CC=C4)C5=C6O\C(=C/C(=O)C6=CC=C5)N7CCOCC7` yielded an efficacy (HCT116 [1]) of -81.5% and an AC50 cell viability (HCT116 [2]) of 1.29 µM.

Work on `CCN1\C(=C(C(=O)NC)/C(=O)C2=C1N=C(C=C2)C#CC(C)(O)COC)N` (stereo unspecified) yielded an efficacy (HCT116 [1]) of -31.1% and an AC50 cell viability (HCT116 [2]) of 18.6 µM.

`CCNC(=O)C#Cc1ccc2c(c1)NC(=O)/C2=C(\Nc1ccc(CN(C)C)cc1)c1ccccc1` was tested, and the efficacy (HCT116 [1]) was -104% and the AC50 cell viability (HCT116 [2]) was 0.257 µM.

Compound `CCNC(=O)Nc1ccc(Oc2ncnc(N)c2/C=N/OC)cc1Cl` has an efficacy (HCT116 [1]) of -70.7% and an AC50 cell viability (HCT116 [2]) of 23.5 µM.

With `CCOC(=O)N1CCN(/[N+]([O-])=N/Oc2ccc([N+](=O)[O-])cc2[N+](=O)[O-])CC1` the efficacy (HCT116 [1]) was -71.8% and the AC50 cell viability (HCT116 [2]) was 18.6 µM.

Compound `CCn1c(-c2nonc2N)nc2cncc(CNC3CCNCC3)c21` has an efficacy (HCT116 [1]) of -43.9% and an AC50 cell viability (HCT116 [2]) of 10.5 µM.

Compound `CCn1c(-c2nonc2N)nc2cnc(Oc3cccc(NC(=O)c4ccc(OCCN5CCOCC5)cc4)c3)cc21` has an efficacy (HCT116 [1]) of -79.2% and an AC50 cell viability (HCT116 [2]) of 10.5 µM.

`CN(C)CCN(C)C(=O)c1ccc(NC(=O)Nc2ccc(-c3nc(N4CCOCC4)c4ccn(CC(F)(F)F)c4n3)cc2)cc1` showed an efficacy (HCT116 [1]) of -118% and an AC50 cell viability (HCT116 [2]) of 0.263 µM.

`CN(c1ncccc1CNc1nc(Nc2ccc3c(c2)CC(=O)N3)ncc1C(F)(F)F)[S+](C)(=O)[O-]` gave an efficacy (HCT116 [1]) of -62.3% and an AC50 cell viability (HCT116 [2]) of 2.63 µM.

`Cn1cc(-c2cnn3c(N)c(Br)c([C@@H]4CCCNC4)nc23)cn1` showed an efficacy (HCT116 [1]) of -108% and an AC50 cell viability (HCT116 [2]) of 13.2 µM.

Compound `CN1CCC(CC1)COC2=CN=C(N=C2)C3=CC(=CC=C3)CN4/N=C(\C=C/C4=O)C5=CC(=CC=C5)C#N` has an efficacy (HCT116 [1]) of -30.6% and an AC50 cell viability (HCT116 [2]) of 7.42 µM.

`COc1ccccc1N1CCN(CCN(C(=O)C2CCCCC2)c2ccccn2)CC1` gave an efficacy (HCT116 [1]) of -31.7% and an AC50 cell viability (HCT116 [2]) of 13.2 µM.

For `COc1ccccc1[C@H](c1cccc2ccccc12)[C@@](C)(C#N)C(=O)N1CCC(c2cccc(C(F)(F)F)c2)CC1`, the efficacy (HCT116 [1]) was -39.8% and the AC50 cell viability (HCT116 [2]) was 0.833 µM.

`COc1cc2c(Nc3ccc(NC(=O)c4ccccc4)cc3)ncnc2cc1OCCCN1CCOCC1` was tested, and the efficacy (HCT116 [1]) was -120% and the AC50 cell viability (HCT116 [2]) was 18.6 µM.
